In ChEMBL document CHEMBL1201862, “PubChem BioAssay data set” (2004):
Activity calls are given as the source filed them.

Columns and labels:
Beta-lactamase [1] = molecular target: T1, Beta-lactamase (Pseudomonas aeruginosa, UniProt Q79MP6)
Beta-lactamase [2] = molecular target: T2, Beta-lactamase (Salmonella choleraesuis (strain SC-B67), UniProt Q5J463)
[3] = molecular target: Arf-GAP with SH3 domain, ANK repeat and PH domain-containing protein 1 (Homo sapiens, UniProt Q9ULH1); assay type: functional;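 also: biochemical fluorescence polarization dose–response screen measuring inhibition of ASAP1; ASAP1 GAP domain stimulating GTP hydrolysis by truncated human ARF1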
HeLa = assay: HeLa cell cytotoxicity, dose response, cytotoxicity control, ATP luminescence, cherry-pick samples (AID 687004); assay type: functional, cell-based; details: Homo sapiens
[4] = molecular target: T3, Replicative DNA helicase DnaB (Mycobacterium tuberculosis, UniProt P9WMR3); assay: DnaB intein splicing inhibitors, dose response, biochemical, cell-free fluorescence (AID 449749); assay type: functional
T3 sequence (P9WMR3 whole entry): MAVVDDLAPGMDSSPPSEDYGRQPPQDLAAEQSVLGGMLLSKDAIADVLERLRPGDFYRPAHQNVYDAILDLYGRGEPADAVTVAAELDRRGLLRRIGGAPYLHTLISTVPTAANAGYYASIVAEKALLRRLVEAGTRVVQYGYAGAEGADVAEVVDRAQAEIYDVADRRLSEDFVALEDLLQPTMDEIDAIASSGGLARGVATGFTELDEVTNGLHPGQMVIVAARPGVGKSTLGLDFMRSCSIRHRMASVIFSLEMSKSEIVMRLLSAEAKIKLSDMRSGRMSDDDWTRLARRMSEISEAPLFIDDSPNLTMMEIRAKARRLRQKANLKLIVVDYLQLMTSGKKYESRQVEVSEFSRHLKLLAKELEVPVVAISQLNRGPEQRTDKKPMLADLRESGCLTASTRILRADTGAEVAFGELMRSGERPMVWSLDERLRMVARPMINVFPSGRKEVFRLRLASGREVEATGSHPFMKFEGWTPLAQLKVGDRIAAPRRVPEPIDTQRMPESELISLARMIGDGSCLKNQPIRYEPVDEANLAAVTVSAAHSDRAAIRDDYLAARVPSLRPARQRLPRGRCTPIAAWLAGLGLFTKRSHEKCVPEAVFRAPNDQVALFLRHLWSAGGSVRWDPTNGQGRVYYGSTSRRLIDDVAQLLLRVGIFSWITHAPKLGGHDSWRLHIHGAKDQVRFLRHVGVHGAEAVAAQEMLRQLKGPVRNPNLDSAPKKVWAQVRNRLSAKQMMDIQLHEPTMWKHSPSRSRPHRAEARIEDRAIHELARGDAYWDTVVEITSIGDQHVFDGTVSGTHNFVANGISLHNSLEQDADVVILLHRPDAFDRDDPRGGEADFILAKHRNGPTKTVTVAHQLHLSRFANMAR

Protein RecA = molecular target: T4, Protein RecA (Mycobacterium tuberculosis, UniProt P9WHJ3); assay: Fluorescence Cell-Free Homogeneous Dose Retest to Identify Inhibitors of RecA-Intein Splicing Activity. [Related pubchem assays (depositor defined):AID2097, AID2223, AID489010, AID492950]; assay type: functional
T4 sequence (P9WHJ3 whole entry): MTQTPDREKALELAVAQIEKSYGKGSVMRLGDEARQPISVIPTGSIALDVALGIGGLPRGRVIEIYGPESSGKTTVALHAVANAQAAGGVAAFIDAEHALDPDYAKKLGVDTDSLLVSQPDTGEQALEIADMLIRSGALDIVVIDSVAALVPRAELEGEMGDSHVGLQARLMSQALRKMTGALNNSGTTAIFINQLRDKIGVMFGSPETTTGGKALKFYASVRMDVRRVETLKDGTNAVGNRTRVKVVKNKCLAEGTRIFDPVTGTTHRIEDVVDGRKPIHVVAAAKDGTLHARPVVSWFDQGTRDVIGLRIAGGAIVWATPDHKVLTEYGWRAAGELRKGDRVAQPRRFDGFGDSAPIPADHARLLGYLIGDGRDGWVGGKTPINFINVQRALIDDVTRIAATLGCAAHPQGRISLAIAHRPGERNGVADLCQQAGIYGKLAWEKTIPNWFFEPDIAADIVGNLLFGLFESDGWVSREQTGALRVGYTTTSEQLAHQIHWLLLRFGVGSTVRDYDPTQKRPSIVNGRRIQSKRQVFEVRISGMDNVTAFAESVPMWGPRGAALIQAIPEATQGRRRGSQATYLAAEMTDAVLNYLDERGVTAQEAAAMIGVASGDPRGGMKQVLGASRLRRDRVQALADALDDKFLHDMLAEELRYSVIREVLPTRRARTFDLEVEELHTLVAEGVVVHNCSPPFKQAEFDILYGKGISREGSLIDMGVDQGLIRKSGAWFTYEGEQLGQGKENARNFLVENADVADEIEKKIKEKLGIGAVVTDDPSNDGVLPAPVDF

[5] = molecular target: T5, Sentrin-specific protease 8 (Homo sapiens, UniProt Q96LD8); assay type: functional
T5 sequence (Q96LD8 whole entry): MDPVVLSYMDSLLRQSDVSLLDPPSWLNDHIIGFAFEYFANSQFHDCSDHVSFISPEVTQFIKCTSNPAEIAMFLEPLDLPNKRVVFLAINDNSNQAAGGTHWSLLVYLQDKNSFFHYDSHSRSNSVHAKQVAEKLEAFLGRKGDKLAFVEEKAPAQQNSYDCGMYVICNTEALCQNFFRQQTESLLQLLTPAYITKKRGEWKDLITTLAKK

[6] = molecular target: T5, Sentrin-specific protease 8; assay type: functional; remark: listed apart in the source
Cytochrome P450 2C19 = Cytochrome P450 2C19 (Homo sapiens, UniProt P33261); assay: Cytochrome panel assay with activity outcomes. Panel member name: p450-cyp2c19 Compounds with AC50 equal or less than 10 uM are considered active; assay type: functional; details: read-out: AC50
[7] = molecular target: T6, Beta-2 adrenergic receptor (Homo sapiens, UniProt P07550); assay: beta2AR agonists driving receptor internalization, dose response, cell-based, FAP fluorogen, flow cytometry, cherry pick 1 (AID 588763); assay type: functional
[8] = molecular target: T6, Beta-2 adrenergic receptor; assay: Dose response for HTS for Beta-2AR agonists via FAP method from Powderset3.; assay type: functional
Cytochrome P450 3A4 = Cytochrome P450 3A4 (Homo sapiens, UniProt P08684);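 also: CYP3A4 tested as one member of a cytochrome P450 panel screen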
[9] = NIH/3T3 fibroblast cytotoxicity, dose response, cytotoxicity control for T. cruzi growth inhibitor project, cell-based, cherry-pick samples, set 2 (AID 651817); assay type: functional; details: NIH3T3
[10] = intracellular Trypanosoma cruzi inhibitors in host cells – cell-based, plate reader, cherry-pick samples, set 3, dose response (AID 651818); assay type: functional;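 also: compounds incubated with infected cells for about four days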
[11] = lymphoblastoid cell cytotoxicity, dose response, cytotoxicity control, plate reader, dry powder, set 2 (AID 624367); assay type: functional
[12] = P. falciparum 3D7-ScDHODH growth inhibitors, dose response, SYBR Green, dry powder samples (AID 1159570); assay type: functional, cell-based;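 also: parasite growth measured after 72 hours of compound exposure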
[13] = HepG2 cell cytotoxicity, dose response, cytotoxicity control, plate reader, dry powder samples (AID 1159569); assay type: functional, cell-based;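 also: inhibitor potency with signal falling toward the positive control level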
[14] = P. falciparum Dd2 growth inhibitors, dose response, SYBR Green, cherry-picked samples (AID 1159567); assay type: functional, cell-based
[15] = P. falciparum Dd2 growth inhibitors, dose response, SYBR Green, dry powder samples (AID 1159566); assay type: functional, cell-based;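 also: potency for growth inhibition with lower SYBR green DNA signal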
[16] = HepG2 cell cytotoxicity, dose response, cytotoxicity control, cherry-picked samples (AID 1159577); assay type: functional, cell-based
[17] = P. falciparum ATP4 D1247Y mutant growth inhibitors, dose response, NITD609-resistant line, SYBR Green, dry powder (AID 1159571); assay type: functional, cell-based;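 also: parasites synchronized at ring stage by sorbitol before testing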
[18] = molecular target: Scavenger receptor class B member 1 (Mus musculus, UniProt Q61009); assay: inhibitors of SR-BI dependent HDL uptake, dose response, ldlA[mSR-BI] CHO cells, fluorescence plate reader, dry powder, set 9 (AID 623880); assay type: functional, cell-based
[19] = cytotoxicity in ldlA[mSR-BI] CHO cells, dose response, cytotoxicity control for SR-BI HDL uptake inhibitor project, cell-based, CellTiter-Glo, 24 h, powder samples, set 7 (AID 624026); assay type: functional
[20] = Cryptococcus neoformans growth inhibition, dose response, Alamar Blue, cherry-picks (AID 686998); assay type: functional, organism-based
[21] = cytotoxicity in HEK-293T cells, dose response, cytotoxicity control for TCR NF-kB inhibitor project, luminescence, T-cell screen hits (AID 489026); assay type: functional, cell-based;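 also: cells exposed to compound about 14 hours before the viability readout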
Vero = assay: Vero cell toxicity, dose response, cytotoxicity control, plate reader, cherry-pick samples (AID 687020); assay type: functional, cell-based; details: Chlorocebus sabaeus
A549 = assay: A549 cell toxicity, dose response, cytotoxicity control, plate reader, cherry-pick samples (AID 687028); assay type: functional, cell-based; details: Homo sapiens
[22] = luciferase signal loss, tTA control fusion, HeLa F-luc tTA cells, dry powder, counter-screen for HIV Env fusion inhibitor project, dose response (AID 687021); assay type: functional, cell-based
[23] = A Cell-Based Confirmatory Screen for Compounds that Inhibit VEEV, TC-83 (8).; assay type: functional
[24] = cytotoxicity in HeLa cells, dose response, cytotoxicity control, cell-based, 24 h, dry powder, set 2 (AID 651774); assay type: functional
Beta-lactamase [25] = molecular target: T2, Beta-lactamase; assay: Epi-absorbance-based counterscreen for selective VIM-2 inhibitors: dose response biochemical high throughput screening assay to identify inhibitors of TEM-1 serine-beta-lactamase.
Beta-lactamase [26] = molecular target: T1, Beta-lactamase; assay: IMP-1 metallo-beta-lactamase inhibitors, dose response, selectivity assay for VIM-2 inhibitor project, biochemical, epi-absorbance (AID 1920)
Beta Lactamase [27] = molecular target: T7, Beta Lactamase (Pseudomonas aeruginosa, UniProt Q932Y6); assay: VIM-2 metallo-beta-lactamase inhibitor potency, dose response, biochemical, epi-absorbance readout, selective inhibitors (AID 1919)
Beta-lactamase [28] = molecular target: T1, Beta-lactamase; assay: […] counterscreen for selective VIM-2 inhibitors: dose response biochemical high throughput screening assay to identify inhibitors of IMP-1 metallo-beta-lactamase.
Beta Lactamase [29] = molecular target: T7, Beta Lactamase; assay: VIM-2 inhibitor FRET-based artefact check, dose response, artefact control for selective VIM-2 inhibitor project, biochemical, FRET readout, CCF2 substrate (AID 1926)
[30] = molecular target: FAD-linked sulfhydryl oxidase ALR (Homo sapiens, UniProt P55789); assay: inhibitors of human ALR sulfhydryl oxidase, dose response, biochemical, H2O2 detection, luminescence, cherry-pick (AID 493248)
FAD-linked sulfhydryl oxidase ALR, sequence (P55789 whole entry): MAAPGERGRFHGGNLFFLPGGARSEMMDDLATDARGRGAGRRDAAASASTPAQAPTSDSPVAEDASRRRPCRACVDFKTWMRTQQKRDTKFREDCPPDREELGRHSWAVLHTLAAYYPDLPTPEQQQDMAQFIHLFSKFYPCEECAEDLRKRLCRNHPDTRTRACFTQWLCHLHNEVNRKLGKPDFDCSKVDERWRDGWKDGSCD

T1 sequence (Q79MP6 whole entry): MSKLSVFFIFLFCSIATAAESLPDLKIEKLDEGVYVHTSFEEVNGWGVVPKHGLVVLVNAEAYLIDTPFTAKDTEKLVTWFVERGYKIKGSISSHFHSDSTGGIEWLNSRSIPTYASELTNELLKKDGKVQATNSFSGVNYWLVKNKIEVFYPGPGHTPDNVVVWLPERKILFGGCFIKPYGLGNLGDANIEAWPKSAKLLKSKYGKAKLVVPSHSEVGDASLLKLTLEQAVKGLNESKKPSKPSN
T6 sequence (P07550 whole entry): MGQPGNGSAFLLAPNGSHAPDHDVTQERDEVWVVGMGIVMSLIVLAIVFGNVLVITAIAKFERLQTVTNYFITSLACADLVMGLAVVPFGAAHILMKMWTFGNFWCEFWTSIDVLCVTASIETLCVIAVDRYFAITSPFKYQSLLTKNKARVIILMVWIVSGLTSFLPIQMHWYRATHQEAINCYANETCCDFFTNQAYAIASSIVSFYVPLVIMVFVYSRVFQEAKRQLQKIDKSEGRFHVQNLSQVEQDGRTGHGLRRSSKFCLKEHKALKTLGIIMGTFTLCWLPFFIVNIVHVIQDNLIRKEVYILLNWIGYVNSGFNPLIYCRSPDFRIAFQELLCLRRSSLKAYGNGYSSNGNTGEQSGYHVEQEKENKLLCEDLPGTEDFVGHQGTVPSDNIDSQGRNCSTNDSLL
T7 sequence (Q932Y6 whole entry): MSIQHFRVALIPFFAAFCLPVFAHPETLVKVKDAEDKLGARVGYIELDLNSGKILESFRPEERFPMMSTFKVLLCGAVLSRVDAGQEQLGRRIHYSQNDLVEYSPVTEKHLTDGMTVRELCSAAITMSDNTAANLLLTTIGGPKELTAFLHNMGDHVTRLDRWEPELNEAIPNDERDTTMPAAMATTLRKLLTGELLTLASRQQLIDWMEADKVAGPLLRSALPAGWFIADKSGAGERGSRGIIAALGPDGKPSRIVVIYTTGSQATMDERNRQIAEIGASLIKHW
T2 sequence (Q5J463 whole entry, the tested form may be a part): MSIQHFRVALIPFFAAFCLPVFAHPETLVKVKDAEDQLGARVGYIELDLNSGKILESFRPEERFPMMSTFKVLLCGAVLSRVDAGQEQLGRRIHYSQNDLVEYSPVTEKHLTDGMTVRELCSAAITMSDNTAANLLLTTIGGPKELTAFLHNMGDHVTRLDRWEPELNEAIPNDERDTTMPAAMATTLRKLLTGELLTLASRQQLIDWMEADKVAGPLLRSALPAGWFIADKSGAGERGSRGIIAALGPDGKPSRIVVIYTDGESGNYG
Cytochrome P450 2C19, sequence (P33261 whole entry): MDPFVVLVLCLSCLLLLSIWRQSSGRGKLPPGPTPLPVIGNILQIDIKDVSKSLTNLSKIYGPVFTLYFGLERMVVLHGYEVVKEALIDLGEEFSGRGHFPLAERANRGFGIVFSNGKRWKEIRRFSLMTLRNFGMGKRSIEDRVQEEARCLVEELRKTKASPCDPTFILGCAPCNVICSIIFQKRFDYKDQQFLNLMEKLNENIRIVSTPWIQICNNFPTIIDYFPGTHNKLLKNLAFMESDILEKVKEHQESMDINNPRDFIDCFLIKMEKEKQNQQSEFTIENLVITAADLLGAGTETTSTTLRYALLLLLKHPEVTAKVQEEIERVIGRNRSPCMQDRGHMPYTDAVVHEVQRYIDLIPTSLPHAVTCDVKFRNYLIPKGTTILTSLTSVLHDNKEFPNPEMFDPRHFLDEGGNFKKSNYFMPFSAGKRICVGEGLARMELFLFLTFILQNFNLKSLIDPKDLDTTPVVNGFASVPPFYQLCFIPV
Scavenger receptor class B member 1, sequence (Q61009 whole entry): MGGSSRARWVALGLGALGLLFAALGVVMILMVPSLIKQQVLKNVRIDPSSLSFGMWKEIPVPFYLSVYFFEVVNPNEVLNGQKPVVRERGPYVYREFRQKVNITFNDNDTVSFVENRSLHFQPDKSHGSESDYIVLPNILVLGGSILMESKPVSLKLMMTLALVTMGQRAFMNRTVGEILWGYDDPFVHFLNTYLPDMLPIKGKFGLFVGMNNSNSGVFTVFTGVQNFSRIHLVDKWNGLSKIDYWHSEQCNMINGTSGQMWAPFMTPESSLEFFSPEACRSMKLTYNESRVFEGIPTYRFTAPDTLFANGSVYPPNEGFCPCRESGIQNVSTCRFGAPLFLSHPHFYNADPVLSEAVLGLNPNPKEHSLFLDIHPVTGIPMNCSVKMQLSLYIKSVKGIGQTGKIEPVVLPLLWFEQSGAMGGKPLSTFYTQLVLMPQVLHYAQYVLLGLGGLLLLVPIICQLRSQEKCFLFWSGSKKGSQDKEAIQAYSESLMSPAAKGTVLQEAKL
Cytochrome P450 3A4, sequence (P08684 whole entry): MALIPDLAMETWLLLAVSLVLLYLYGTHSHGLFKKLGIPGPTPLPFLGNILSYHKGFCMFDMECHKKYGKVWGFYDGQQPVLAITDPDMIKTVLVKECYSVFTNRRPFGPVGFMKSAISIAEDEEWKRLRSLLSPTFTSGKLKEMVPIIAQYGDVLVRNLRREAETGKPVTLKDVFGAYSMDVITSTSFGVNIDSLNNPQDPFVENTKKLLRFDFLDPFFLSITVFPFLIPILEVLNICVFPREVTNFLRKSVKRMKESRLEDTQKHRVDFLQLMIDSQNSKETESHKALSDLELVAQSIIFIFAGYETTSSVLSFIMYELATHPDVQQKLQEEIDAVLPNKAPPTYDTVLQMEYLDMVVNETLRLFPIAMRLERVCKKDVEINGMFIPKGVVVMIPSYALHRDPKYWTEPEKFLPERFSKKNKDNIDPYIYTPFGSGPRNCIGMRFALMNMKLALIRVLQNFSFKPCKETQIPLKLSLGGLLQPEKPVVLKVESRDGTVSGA
Arf-GAP with SH3 domain, ANK repeat and PH domain-containing protein 1, sequence (Q9ULH1 whole entry, the tested form may be a part): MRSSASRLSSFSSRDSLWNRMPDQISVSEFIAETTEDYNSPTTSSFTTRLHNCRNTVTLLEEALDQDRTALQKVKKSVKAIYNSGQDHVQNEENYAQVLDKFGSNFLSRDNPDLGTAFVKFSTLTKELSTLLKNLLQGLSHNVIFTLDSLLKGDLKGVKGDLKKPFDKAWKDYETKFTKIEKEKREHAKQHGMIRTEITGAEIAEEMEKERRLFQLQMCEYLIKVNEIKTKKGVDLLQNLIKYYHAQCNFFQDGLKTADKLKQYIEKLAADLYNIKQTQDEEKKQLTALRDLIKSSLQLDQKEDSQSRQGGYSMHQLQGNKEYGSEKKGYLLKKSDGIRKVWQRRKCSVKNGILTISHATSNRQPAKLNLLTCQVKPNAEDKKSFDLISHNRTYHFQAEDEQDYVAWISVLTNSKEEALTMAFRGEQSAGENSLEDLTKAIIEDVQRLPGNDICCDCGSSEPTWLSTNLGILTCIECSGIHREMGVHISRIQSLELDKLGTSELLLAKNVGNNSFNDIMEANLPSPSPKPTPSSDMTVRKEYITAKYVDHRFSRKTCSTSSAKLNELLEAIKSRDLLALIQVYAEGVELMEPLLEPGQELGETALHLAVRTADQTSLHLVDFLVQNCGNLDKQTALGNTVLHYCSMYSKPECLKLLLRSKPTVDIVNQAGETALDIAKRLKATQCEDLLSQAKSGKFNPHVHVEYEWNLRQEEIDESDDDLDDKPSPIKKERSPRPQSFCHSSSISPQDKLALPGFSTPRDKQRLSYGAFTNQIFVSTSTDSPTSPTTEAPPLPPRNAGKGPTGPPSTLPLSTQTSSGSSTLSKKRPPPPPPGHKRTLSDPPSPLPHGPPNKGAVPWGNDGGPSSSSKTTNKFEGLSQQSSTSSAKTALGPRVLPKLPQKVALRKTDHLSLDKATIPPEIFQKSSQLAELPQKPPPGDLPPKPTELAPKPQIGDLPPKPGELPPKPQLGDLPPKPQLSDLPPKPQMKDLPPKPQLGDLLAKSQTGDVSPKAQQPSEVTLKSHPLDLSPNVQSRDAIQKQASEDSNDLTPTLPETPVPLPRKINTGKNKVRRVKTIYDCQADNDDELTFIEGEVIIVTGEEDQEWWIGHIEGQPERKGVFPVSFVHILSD

COC(=O)c1sccc1NC(=O)c1ccc(C#N)cc1
IC50 (Beta-lactamase [1]): > 59.6 µM (inactive)
IC50 (Beta-lactamase [2]): > 59.6 µM (inactive)

O=C(COC(=O)c1ccc2c(c1)C(=O)N(c1cccc3ncccc13)C2=O)c1ccc(Cl)cc1
IC50 [3]: 1.97 µM (active)

O=C1CCC(C(=O)Nc2cccc(C(F)(F)F)c2)N1 (stereo unspecified)
AC50 (HeLa): > 52 µM (inactive)

CC1=NN(c2cccc(Cl)c2)C(=O)C1
AC50 [4]: 75.7 µM (active)
EC50 (Protein RecA): 54.5 µM (active)
IC50 [5]: 8.2 µM (active)
IC50 [6]: 13.4 µM (active)

Cc1ccc(Cn2ccc(NC(=O)c3cc4nc(-c5ccco5)cc(C(F)(F)F)n4n3)n2)cc1
AC50 (Cytochrome P450 2C19): 14.1 µM (inconclusive)
EC50 [7]: 0.22 µM (active)
EC50 [8]: 0.00643 µM (active)
AC50 (Cytochrome P450 3A4): 2.82 µM (inconclusive)

C[C@@H]1CN([C@H](C)CO)C(=O)c2cccc(NC(=O)Nc3ccc(C(F)(F)F)cc3)c2O[C@H]1CN(C)Cc1ccc(Cl)c(Cl)c1
AC50 [9]: 15.7 µM (active)
AC50 [10]: 1.28 µM (active)

N#C[C@H]1[C@H](c2ccc(C#Cc3ccccc3F)cc2)[C@H](CO)N1C(=O)c1cccnc1
AbsAC35 [11]: 50.14 µM
AC50 [12]: 1.83 µM (active)
AC50 [13]: > 100 µM (inactive)
AC50 [14]: 1.58 µM (active)
AC50 [15]: 1.59 µM (active)
AC50 [16]: > 39 µM (inactive)
AC50 [17]: 1.54 µM (active)

C[C@@H]1CN([C@H](C)CO)C(=O)c2cc(NC(=O)Nc3ccc(F)cc3)ccc2O[C@H]1CN(C)S(=O)(=O)c1ccc(Cl)cc1
AC50 [18]: 0.113 µM (active)
AC50 [19]: > 70 µM (inactive)

CCC(=O)N1CCCC1(C)C(=O)Nc1ccc(C)c(C)c1 (stereo unspecified)
AC50 [20]: 93.7 µM (active)

COc1ccc(OC)c(-c2nnc3n2N=C(c2ccc(OC)c(OC)c2)CS3)c1
IC50 [21]: > 80 µM (inactive)
AC50 (Vero): 23.2 µM (active)
AC50 (A549): 4.83 µM (active)

CC1(C)CC(NC(=O)C(=O)Nc2ccc(Cl)cc2)CC(C)(C)N1
AC50 [22]: > 70 µM (inactive)

O=c1c2cc([N+](=O)[O-])ccc2nc(C2CCNCC2)n1-c1ccccc1
IC50 [23]: 3.88 µM (active)

CNC(=O)Cc1ccc(-c2ccccc2)cc1
AC50 [24]: > 70 µM (inactive)

O=[N+]([O-])c1ccccc1/C=C/C=N/n1c(S)nnc1-c1ccccc1F
IC50 (Beta-lactamase [25]): > 59.6 µM (inactive)
IC50 (Beta-lactamase [26]): > 59.6 µM (inactive)
IC50 (Beta Lactamase [27]): > 59.6 µM (inactive)
IC50 (Beta-lactamase [28]): > 59.6 µM (inactive)
IC50 (Beta Lactamase [29]): > 6.63 µM (active)
AC50 [30]: 1.89 µM (active)
